This is an account of results in EP0428272A2, “Trifluorobenzodiazepine compounds for use in therapy by intraoral administration” (Ellinwood, Everett Hews, priority 1989, dated 1991).

Read-outs that look alike come from different tables or passages of the source.

The nature of data set [1]: Pharmacokinetics in blood plasma after a single sublingual or per oral swallowed dose of quazepam 15 mg standard tablet. Type of data set: in vivo, volunteer adult humans. The note with it: for half-life / Tmax / Cmax / AUC: human; for half-life: plasma, 15 mg; for half-life / Tmax / Cmax / AUC / CL/F / Lag time: mean ± SD; for Tmax: time to Cmax; for Cmax: quazepam peak plasma concentration; for AUC: quazepam, area under plasma concentration-time curve; for CL/F: quazepam clearance. Here is the method: Test results will now be described. Testing was carried out using volunteer adult humans. Standard tablets containing, as active ingredient, solely quazepam or solely halazepam, were used. Such tablets were intended by their manufacturers to be swallowed but dissolved adequately in the mouth to permit the intraoral testing. • Figure 1 is a graph illustrating the concentration of quazepam (Q) and N-desalkyl-2-oxoquazepam (DOQ) in the blood plasma over 96 hours following a single sublingual dose (SL) or per oral swallowed dose (PO) of quazepam in a 15 mg standard tablet. • Figure 2 is a graph illustrating the concentration of quazepam (Q) and N-desalkyl-2-oxoquazepam (DOQ) in the blood plasma over 210 hours following a single sublingual dose (SL) or per oral swallowed dose (PO) of quazepam in a 15 mg standard tablet. • Figure 3 is a graph of computer simulated concentration levels of quazepam and N-desalkyl-2-oxoquazepam in the blood following sublingual and oral swallowed doses of quazepam (15 mg standard tablet) once a day for a 15 day period illustrating the marked reduction in accumulated levels of desalkyloxoquazepam with sublingual dosing; • Figure 4 is a graph illustrating the concentration of halazepam (HZ) and N-desalkyl-3-hydroxy-halazepam (ND) in the blood over 96 hours following a single sublingual dose (SL) or per oral swallowed dose (PO) of halazepam in a 20 mg standard tablet. • Figure 5 is a graph illustrating the concentration of halazepam (HZ) and N-desalkyl-3-hydroxy-halazepam (ND) in the blood over 240 hours following a single sublingual dose (SL) or per oral swallowed (PO) of halazepam in a 20 mg standard tablet; and • Figure 6 is a flow chart of the method of the present invention.
This change in concentrations for the two compounds can be seen with reference to Figure 1 and Figure 2 of the drawings where the differences in the parent compound Q and the metabolite DOQ for both the oral and sublingual dosing is shown. In Figure 3, by use of standard mutliple Q dose simulations, the differences in accumulation of Q and DOQ for sublingual versus oral dosing over 15 days is shown. With chronic dosing it is readily apparent that after 15 days the DOQ level, following oral administration, has reached levels that are associated with the threshold for impairing ataxic and incoordination affects (especially if larger doses are given).
In Table 1 and Table 2, set forth below, the average pharmacokinetic parameters for both Q and DOQ for both oral and sublingual routes of administration are set forth: TABLE I

Data set [2] can be described thus: Concentration in blood after a single sublingual or per oral swallowed dose of halazepam 20 mg standard tablet. Type of data set: in vivo, volunteer adult humans. As to conditions: sublingual administration of halazepam versus oral. Here is the method: Test results will now be described. Testing was carried out using volunteer adult humans. Standard tablets containing, as active ingredient, solely quazepam or solely halazepam, were used. […]

The mark [3] stands for this setting: quazepam in plasma, oral quazepam 15 mg.
Where [4] appears, read: quazepam in plasma, sublingual quazepam 15 mg.

As usually defined, the Tmax is the time from dosing to the highest level. Usually Cmax stands for the highest concentration seen after dosing. By AUC is commonly meant concentration integrated over time. A higher AUC goes with high exposure. With `Fc1ccccc1C1=NCC(=S)N(CC(F)(F)F)c2ccc(Cl)cc21` [quazepam, 7-chloro-1-(2,2,2-trifluorethyl)-5-(o-fluorophenyl)-1,3-dihydro-2H-1,4-benzodiazepine-2-thione], the half-life was 0.27 ± 0.1 h in data set [1] (quazepam in plasma, absorption half-life, sublingual quazepam 15 mg, read-out: t1/2 Ka (converted)); 1.44 ± 0.45 h in data set [1] (quazepam in plasma, rapid distribution half-life, sublingual quazepam 15 mg, read-out: t1/2 λ₁ (converted)); 27.7 ± 7.18 h in data set [1] (quazepam in plasma, terminal elimination half-life, sublingual quazepam 15 mg, read-out: t1/2 λ₂ (converted)); 0.77 ± 0.23 h in data set [1] (po, quazepam in plasma, absorption half-life, oral quazepam 15 mg, read-out: t1/2 Ka (converted)); 1.73 ± 0.65 h in data set [1] (po, quazepam in plasma, rapid distribution half-life, oral quazepam 15 mg, read-out: t1/2 λ₁ (converted)); 24.6 ± 8.35 h in data set [1] (po, quazepam in plasma, terminal elimination half-life, oral quazepam 15 mg, read-out: t1/2 λ₂ (converted)). In addition, the results for the time to peak (Tmax) in data set [1] (setting [3]) and in data set [1] (setting [4]) were 2.57 ± 1.69 h and 0.78 ± 0.31 h, respectively. The maximum concentration (Cmax) in data set [1] (oral quazepam 15 mg) came to 26.7 ± 6.83 ng/mL; in data set [1] (sublingual quazepam 15 mg), 42.4 ± 10.4 ng/mL. In addition, the AUC in data set [1] (oral quazepam 15 mg) was found to be 473 ± 239 ng·h/mL; in data set [1] (sublingual quazepam 15 mg), 1460 ± 299 ng·h/mL. Further, the CL/F was 37.56 ± 16.89 h⁻¹ in data set [1] (oral quazepam 15 mg) and 8.78 ± 5.25 h⁻¹ in data set [1] (sublingual quazepam 15 mg). For the same compound, the values for the Lag time in data set [1] (setting [3]) and in data set [1] (setting [4]) were 0.52 ± 0.28 h and 0.18 ± 0.05 h, respectively. For the same compound, in data set [1] (sublingual dosing in contrast to oral dosing of quazepam), the “increase of availability of quazepam” value was “about 60%”.
In the case of `O=C1CN=C(c2ccccc2F)c2cc(Cl)ccc2N1` [N-DESALKYL-2-OXOQUAZEPAM, N-desalkyl-2-oxoquazepam], the Lag time in data set [1] (metabolite N-desalkyl-2-oxoquazepam in plasma, oral quazepam 15 mg) was determined as 0.66 ± 0.32 h; in data set [1] (metabolite N-desalkyl-2-oxoquazepam in plasma, sublingual quazepam 15 mg), 1.74 ± 0.86 h. For the same compound, the “DOQ level relative to oral quazepam administration levels” value in data set [1] (sublingual dosing of quazepam versus oral) was “about one-half”.
On to `O=C1CN=C(c2ccccc2)c2cc(Cl)ccc2N1CC(F)(F)F` [halazepam, 7-chloro-1,3 dihydro-5-phenyl-1-1-(2,2,2-trifluoroethyl)-2H-1,4-benzodiazepine-2-one], for which the availability of halazepam result in data set [2] was “significantly increased”.
Take `O=C1Nc2ccc(Cl)cc2C(c2ccccc2)=NC1O` (stereo not shown) [N-dealkyl-hydroxy-halazepam, N-desalkyl-3-hydroxy-halazepam]: the “level of metabolite N-dealkyl-hydroxy-halazepam” value in data set [2] is “reducing”.
